Reference: patent US12178846B2, “Methods of using gap junctions as therapeutic targets for the treatment of degenerative disorders of the retina” (The Research Foundation for The State University of New York, priority 2014, dated 2024)

Tested on: cells in the GCL of mouse retinas
Test: NMDA-induced excitotoxic cell death in the GCL of retina-eyecups
Assay type: cell-based
Method: All animal procedures were in compliance with the NIH Guide for the Care and Use of Laboratory Animals and approved by the Institutional Animal Care and Use Committees at SUNY College of Optometry. Experiments were performed on retinas of wild type (WT), connexin knockout (KO) mice (Cx36^−/−, Cx45^−/−, and Cx36^−/−/45^−/− dKO), and their heterozygous (Het) littermates. The methods used to impale and label neurons have been described previously (Hu et al., J Neurosci 23:[…] (2003); Völgyi et al., Journal of Comparative Neurology 512:664-687 (2009)). Briefly, flattened retina-eyecups were placed in a superfusion chamber, which was mounted on the stage of a BX51WI light microscope (Olympus) within a light-tight Faraday cage. […] The retina-eyecups were superfused with a modified, oxygenated Ames medium maintained at 35° C.
Various methods were employed to produce cell death. (1) Single cell apoptosis: CytC was injected into individual RGCs or Müller cells for 15 minutes after which retinas were incubated for 4 hours in oxygenated Ames medium before fixation. After streptavidin histology, apoptotic cells were detected with an anti-active caspase 3 antibody or with Terminal deoxynucleotidyl transferase dUTP nick end labeling (TUNEL) staining. (2) Excitotoxicity: To assess the contribution of GJs to cell death within populations of RGCs and amacrine cells we conducted parallel experiments in which retinas were preincubated for 20 minutes in normal Ames medium or in one containing the GJ blockers meclofenamic acid (MFA; 50 μM) or 18-beta-glycyrrhetinic acid (18Beta-GA; 25 μM). Both control and drug-treated retinas were then exposed for 1 hour to NMDA (100-300 μM) to induce excitotoxicity followed by 4 hours in the control Ames solution. (3) Retinal ischemia: Transient in vivo retinal ischemia was induced by introducing into the anterior chamber a 33-gauge needle attached to a saline-filled reservoir (0.9% sodium chloride) that was raised above the animal so as to increase intraocular pressure (IOP) to a level […]. MFA (2 μl, 500 μM) was administered intravitreally either 30 minutes before or 3 and 24 hours following the ischemic insult. […]
Apoptotic and necrotic cell death were assessed by cell counts following: (1) staining with Live/Death Viability Assay (calcein AM/ethidium homodimer (EthD) (Invitrogen); (2) TUNEL, or, (3) labeling for activated caspase 3. For population studies, dead cells were counted manually within 500×500 μm areas (5 areas per retina) from micrographs of whole-mounts using images acquired by confocal microscope. Nuclear cell counts were made per unit length (500 μm) of frozen retinal cross-sections labeled with propidium iodide (2 μg/ml).

CC1(C)[C@@H](O)CC[C@]2(C)[C@H]3C(=O)C=C4[C@@H]5C[C@@](C)(C(=O)O)CC[C@]5(C)CC[C@@]4(C)[C@]3(C)CC[C@@H]12 [18Beta-GA, 18-Beta-glycyrrhetinic acid]
cell viability, blocker alone (control experiments, 18Beta-GA or MFA alone without NMDA, p>0.1): did not affect cell viability
cell death in the GCL induced by excitotoxicity (retinas preincubated in 18Beta-GA 25 μM or MFA 50 μM, then NMDA 100-300 μM 1 h, vs NMDA alone, p<0.001): significantly reduced
